Measured values: patent US7687546B2, “Quaternary ammonium compound, process for producing the same, therapeutic agent for cerebrovascular disorder, and therapeutic agent for heart disease” (Activus Pharma Co., Ltd., priority 2004, dated 2010)
Like-named read-outs stand apart in the source and are kept apart here.

Assays:
[1] = test system: model of myocardial ischemia reperfusion injury; test: Model of myocardial ischemia-reperfusion injury in dogs; assay type: in vivo; settings: 3 mg/kg into the femoral vein 10 minutes before 20 minutes coronary occlusion, then reperfusion
Experimental: In order to confirm the efficacy of compounds of the present invention on myocardial infarction and arrhythmia caused by myocardial infarction, a pharmacological study was conducted using a model of myocardial ischemia reperfusion injury in dogs for the compounds used in Example 1.
Dogs having body weights of approximately 10 kg were anesthetized with pentobarbital (trade name) (30 mg/ml/kg) followed by shaving the surgical site after starting artificial respiration. The femoral vein and femoral artery were separated followed by cannulation. The femoral vein was used as the administration route for the test substances, while the femoral artery was used to measure blood pressure.
Next, after opening the left chest, making an incision in the pericardium and exposing the left ventricle, the left coronary artery was separated. A silk suture was passed through the coronary artery to occlude, followed by the attachment of an electromagnetic flow meter probe for measuring blood flow.
In addition, a pair of ultrasound crystal probes was fixed in position to measure changes in ventricular wall length as a indicator of myocardial contractile force, and indwelling needle was installed for measuring left intraventricular pressure. Compounds of the present invention were administered into the femoral vein at 3 mg/kg (15% physiological saline solution) followed 10 minutes later by occluding the coronary artery for 20 minutes, and subsequently reperfusing the coronary artery. Myocardial contraction following ischemia-reperfusion was compared for each group based on a value of 100 for myocardial contraction prior to ischemic reperfusion. In addition, comparisons were also made with a solvent control group administered only physiological saline.

[2] = test system: model of myocardial ischemia-reperfusion injury; test: Model of myocardial ischemia-reperfusion injury in rats; assay type: in vivo; settings: 3 mg/kg i.v. 5 minutes before 5 minutes coronary ligation, 8 rats per group; for Incidence of Ventricular Fibrillation (%) / Incidence of Ventricular Tachycardia (%): monitored 5 minutes after reperfusion; for Mortality Rate (%): then reperfusion
guinea pigs = settings: guinea pig, in vivo
[3] = test system: middle cerebral artery occlusion and reperfusion model; test: Cerebral infarction model: middle cerebral artery occlusion and reperfusion (infarct area, neurological symptoms, motor function); assay type: in vivo, rats (Crj: Wistar strain); parameters: Improvement of neurological symptoms* (total score): scale not given here; settings: rats, average of 10 animals; for Improvement of neurological symptoms* (total score) / Improvement of motor function (time stayed on rotor rod: seconds): single i.v. dose 3 mg/kg; for Improvement of neurological symptoms* (total score): 24 hours after occlusion, total score per Table 4, smaller = greater effect; for Improvement of motor function (time stayed on rotor rod: seconds): rotor rod 14 rotations per minute, maximum 1 minute; for Cerebral infarction reduction rate (%): single intravenous dose 3 mg/kg immediately before reperfusion, vs physiological saline group, bigger = greater effect
Experimental: In this example, a cerebral infarction model was prepared using rats in which reperfusion injury was induced by ischemia and then reperfusion of the middle cerebral artery using the obturator method. The efficacy of compounds of the present invention following single-dose intravenous administration at dose of 3 mg/kg was evaluated in terms of infarct area, neurological symptoms and motor function.
In addition, Edaravone (trade name, Mitsubishi Pharma Corporation) was used as a reference compound. The compounds of the present invention were stored in a refrigerator under protection from light, while Edaravone (trade name) was stored at room temperature under protection from light.
Compounds of present invention: 2 mL of physiological saline was added directly to tube containing 3 mg aliquots of a compound of the present invention to dissolve and prepare solutions having a concentration of 3 mg/2 mL. These samples were prepared at the time of use.
Edaravone: Since Edaravone is an injectable solution having a concentration of 30 mg/20 mL, the required amounts were divided up and used.
Rats: Crj: Wistar strain, males, age 7 weeks (Charles River Laboratories Japan, Inc.)
The test compounds were administered in a single dose into the tail vein using a 1 mL syringe and 27 G injection needle immediately before the reperfusion.
The rats were anesthetized by intraperitoneal administration of sodium pentobarbital at dose of 40 mg/kg (Nembutal (trade name), Dainippon Pharmaceutical Co., Ltd.), and a middle cerebral artery occlusion and reperfusion model was prepared in accordance with the method of Koizumi et al. (Non-Patent Document 2). Namely, the animals were warmed to 37° C. and held in the dorsal position while breathing spontaneously. A midline cervical incision was made, and then the right external carotid artery and right internal carotid artery were separated without damaging the vagus nerve. The right common carotid artery and right external carotid artery were ligated, and a suture was attached to the origin of the internal carotid artery in preparation for ligation and maintenance of occlusion following insertion of an obturator into the internal carotid artery. Moreover, a small incision was made in the right common carotid artery, an obturator provided with an approximately 17 mm silicon-coated suture was inserted into the internal carotid artery, and the internal carotid artery was ligated. Two hours after ligation, the obturator was removed under unanesthesia to reperfuse. Furthermore, flexion of the contralateral forelimb was confirmed 30 minutes after occlusion of the middle cerebral artery.
The following neurological symptoms were evaluated 24 hours after occlusion of the middle cerebral artery according to the evaluation method of Petullo et al. (Non-Patent Document 3). Neurological symptoms consisted of flexion of the forelimbs, torso twisting, resistance when pushing on the back of the right or left shoulder (Lateral push), circling, return of the hindlimb to the floor when lifted from the floor (Hindlimb placement), behavior when the head is faced downward on an angle (Inverted angle board) and a locomotor activity test.
Flexion of the forelimbs: flexion of the forelimbs was observed when the animals were lifted up by the tail.
Torso twisting: Torso twisting was observed when the animals were lifted up by the tail.
Lateral push: Resistance was observed when pushing on the back of the right or left shoulder.
Hindlimb placement: The animals were observed as to whether or not the hindlimb immediately returns to the floor after being lifted from the floor when placed on a horizontal floor.
locomotor activity: locomotor activity was observed when the animals were placed in a polycarbonate cage.
The aforementioned tests were scored based on the criteria described in the following documents, followed by calculation of total scores (see Table 4 “Neurological Symptom Evaluation Criteria and Scores”). […]

[4] = test system: ouabain-induced arrhythmia model; test: Ouabain-induced arrhythmia model in guinea pigs; assay type: in vivo, guinea pigs (Hartley strain); settings: dose 3 mg/kg i.v. immediately before ouabain infusion 3 μg/0.1 ml/min
Description: After guinea pigs (Hartley strain, age 6 weeks) were anesthetized with urethane, induction electrodes were attached to the hind limbs and fore limbs, and standard 2-lead electrocardiograms were monitored with an animal electrocardiogram analysis system (ECG-01, Japan Energy). After confirming that the waveforms of the electrocardiogram and heart rate were within the normal range, an incision was made in the epidermis of the neck followed by inserting a breathing tube into the trachea and cannulating a polyethylene tube into the left external jugular vein and left common carotid artery.
Immediately after administering a compound of the present invention dissolved in a physiological saline solution into the right external jugular vein, ouabain was continuously infused at 3 μg/0.1 ml/min through the cannulated polyethylene tube into the left external jugular vein using a syringe pump (Atom Syringe Pump 1235 (trade name), Atom Medical Corporation).
In addition, the polyethylene tube cannulated in the left common carotid artery was connected to a pressure transducer (P23XL, Gould Electronics), and fed to a pressure processor signal conditioner (TA-11, Gould Electronics) to record blood pressure and heart rate on a thermal plate recorder.
The results were assessed by comparing the dose (μg/kg) of ouabain administered until the appearance of arrhythmia and occurrence of cardiac arrest (arrhythmia is not induced even if a large dose of ouabain is administered if antiarrhythmic effects are high). Furthermore, a solvent dose group (administered only physiological saline in an amount equal to that of the test drug groups), and a positive control group administered a typical antiarrhythmic disopyramide phosphate (physiological saline solution), were also provided.

Compound	Myocardial Contraction (%) (Based on a value of 100% for prior to ischemia-reperfusion) [1]	Incidence of Ventricular Fibrillation (%) [2]	Incidence of Ventricular Tachycardia (%) [2]	Mortality Rate (%) [2]	Occurrence of Arrhythmia (guinea pigs; 3 mg/kg)	Occurrence of cardiac arrest (guinea pigs; 3 mg/kg)	Occurrence of Arrhythmia (guinea pigs; 10 mg/kg)	Occurrence of cardiac arrest (guinea pigs; 10 mg/kg)	Improvement of neurological symptoms* (total score) [3]	Improvement of motor function (time stayed on rotor rod: seconds) [3]	Cerebral infarction reduction rate (%) [3]	Ouabain (μg/kg) administered until Cardiac arrest [4]	Ouabain (μg/kg) administered until appearance of Arrhythmia [4]
C[N+](C)(C)CCOc1ccc(O)c(C(=O)[O-])c1 [Compound 9]	78%	25.0%	75.0%	12.5%	No	No	No	No	5.95	51.6 s	51.5%	245 µg/kg	170 µg/kg
C[N+](C)(C)CCOc1cc(O)cc(C(=O)[O-])c1O [Compound 28]	76%	12.5%	62.5%	12.5%	No	No	No	No	5.85	53.1 s	54.7%	267 µg/kg	173 µg/kg
C[N+](C)(C)CCOc1cc(C(=O)[O-])c(O)cc1O [Compound 30]	77%	12.5%	62.5%	12.5%	No	No	No	No	6.50	51.4 s	42.9%	247 µg/kg	173 µg/kg
C[N+](C)(C)CCOc1cc(C(=O)[O-])cc(O)c1O [Compound 31]	89%	0%	37.5%	0%	No	No	No	No	5.25	60.0 s	65.3%	259 µg/kg	179 µg/kg
C[N+](C)(C)CCOc1ccc(C(=O)[O-])c(O)c1O [Compound 32]	79%	12.5%	50.0%	12.5%	No	No	No	No	5.65	53.5 s	55.4%	243 µg/kg	176 µg/kg
C[N+](C)(C)CCOc1ccc(O)c(O)c1C(=O)[O-] [Compound 33]	82%	12.5%	50.0%	0%	No	No	No	No	5.90	52.1 s	52.6%	239 µg/kg	171 µg/kg
COc1ccc(C(=O)[O-])cc1OCC[N+](C)(C)C [Compound 39]	74%	12.5%	62.5%	12.5%	No	No	No	No	6.80	42.4 s	37.8%	229 µg/kg	165 µg/kg
CC1=NN(c2ccccc2)C(=O)C1 [Edaravone, reference compound]									6.10	42.6 s	37.3%		
CCN(CC)CC(=O)Nc1c(C)cccc1C [Lidocaine, lidocaine, reference compound]		12.5%	62.5%	12.5%									
